Results published in patent publication US12156888B2, “CAR T-cells for the treatment of bone metastatic cancer” (H. Lee Moffitt Cancer Center and Research Institute, Inc., priority 2018, dated 2024).

Columns and labels:
C4-2B-PSCA cells = assay: RTCA cytotoxicity assay of γδ T-cells; format: cell-based, human
Description: Summary of RTCA analysis of C4-2B-PSCA, or control PSCA null C4-2B, cells co-cultured with γδ CAR-T cells, or untransduced controls (UT). FIGS. […] show tumor cells without ZOL pretreatment. FIGS. 6C and 6D show tumor cells with 2 h ZOL pretreatment. FIGS. 6A and 6C show tumor cell viability 2 h post co-culture. FIGS. 6B and 6D show 30 h post co-culture.
The CAR- and TCR-mediated mechanism of tumor cell recognition were tested using the CRPC C4-2B cell line.

γδ (CAR)-T cells = assay: IL-2 secretion by γδ (CAR)-T cells; format: cell-based
[1] = system: C4-2B luciferase expressing cells; assay: Intratibial C4-2B bone metastatic CRPC model with human γδ T-cells, zoledronate or vehicle; format: in vivo, NSG mice; settings: for Percentage of CD3Vd2 positive cells in flushed tibias, higher than control: zoledronate 0.1 mg/Kg
Source text: FIGS. 7A to 7D show C4-2B cells inoculated into NSG mice and treated with either zoledronate (ZOL) or vehicle control. After establishment and randomization mice ([…]) were inoculated with 3.5×10^6 […]. Subsets of mice were removed from the study at 1, 3 and 5 days late. […] Number illustrate the percentage of γδ T-cells in the total marrow analysis over time. […] FIG. 7C is a graph showing RLUs quantitated over time and the growth rates calculated for each group. Asterisk indicates statistical significance. Mice at the final time point were assessed for γδ T-cell localization (CD3), apoptosis (cleaved caspase-3; CC3) and proliferation (phospho histone H3; pHH3). […] Arrows indicate positivity. DAPI was used as a nuclear counterstain.
Next, the anti-tumor activity of γδ T-cells on established bone metastatic CRPC lesions in vivo was assessed. NSG (NOD.Cg-Prkdcscid112rgtm1Wjl/SzJ) immunocompromised mice were intratibially inoculated with C4-2B luciferase expressing cells (1×10^5) and once established were randomized in zoledronate (0.1 mg/Kg) or vehicle (saline) groups (n=25 per group) based on relative luminescence unit (RLU) measurement. One week later, mice received tail vein injections of human γδ T-cells (3.5×10^6/mouse).
Groups of mice (n=5) were removed from the study 1, 3, 5 days subsequent to injection with tibias being flushed and assessed for human CD3 Vd2 content by flow cytometry. […] Bioluminescence was used as a correlate of tumor growth.

[2] = system: C4-2B-PSCA-Luc human CRPC prostate cancer cells; assay: IPP production in response to zoledronate, LC-MS/MS of cell extracts; format: cell-based; settings: C4-2B-PSCA-Luc cells, 10 μM or 25 μM, 1 h or 18 h
Description: (§1) Following treatment of tumor cells with ZOL, IPP was measured in cell extracts by tandem LC-MS/MS, using AppCp as an internal standard. […] ZOL treatment was administered for 1 h or 18 h, at 2 different doses: 10 μM or 25 μM.
(§2) In order to verify that zoledronate effectively induces IPP accumulation in a model system, C4-2B-PSCA-Luc human CRPC prostate cancer cells were treated with 10 μM or 25 μM of zoledronate, for 1 h or 18 h. Intracellular IPP levels were measured using a semi-quantitative mass spectrometry assay. T47D breast cancer cells were used as positive control, and Panc02.03 pancreatic cancer cells were used as negative controls.

T47D breast cancer cells = assay: as above; format: cell-based
Description: as §1, §2

[3] = system: Panc02.03 pancreatic cancer cells; assay: as above; format: cell-based; settings: Panc02.03 cells, prolonged treatment with high doses
Description: as §1, §2

[4] = system: PSCA-expressing C42B prostate cancer cells; assay: IFNγ ELISA of co-culture supernatants; format: cell-based, human
Description: IFNγ ELISA of co-culture supernatants of C4-2B-PSCA cells exposed to media (negative control) or the indicated T cells, in presence of increasing concentrations of Zol (0, 0.4 and 0.8 μM).
Four variants of the anti-PSCA CAR were generated containing either CD27 (CD27z), CD28 (CD28z), or 4-1BB (BBz) costimulation. The fourth variant contains a CD27 costimulatory domain where the TRAF-binding site has been replaced with an inert flexible linker (G4S). γδ CAR-T cells expressing either CAR variant (or GFP as controls) were generated, and cocultured with PSCA-expressing C42B prostate cancer cells, in presence or absence of zoledronate, at the indicated doses. The presence of interferon-γ in the supernatants (measured by ELISA) was used as a marker of T cell activation. CAR-expressing T cells (but not untransduced or GFP-transduced cells) reacted to target cells by producing interferon-γ (solid bars).
γδ CAR-T cells recognize tumor cells via CAR and via TCR. The CAR- and TCR-mediated mechanisms of tumor cell recognition were tested using the CRPC C4-2BPSCA cell line. Cancer cells were treated with either untransduced (UT) control or CAR-expressing γδ T-cells, in the presence or absence of ZOL (0.4 μM). In presence of ZOL, control γδ T cells induced a cytotoxic effect at approx. 18 h, reflecting recognition of C4-2B-PSCA cells via TCR. […] The ability to induce a potent cytolytic effect with lesser cytokine production that can be modulated by ZOL is important since it may allow γδ (CAR−)T-cells to mediate more precise tumor killing, reducing the risk for complications related to massive cytokine release.

[5] = study endpoint, compared to control
[6] = coculture with PSCA-expressing C42B cells

Compound: O=P(O)(O)C(O)(Cn1ccnc1)P(=O)(O)O [zoledronate]
- Time at which control (untransduced) γδ T cells induced a cytotoxic effect (C4-2B-PSCA cells): approx. 18 h
- Effect of ZOL on cytolytic activity of γδ CAR-T (C4-2B-PSCA cells; ZOL 0.4 μM): greatly enhanced
- Effect of zoledronate on IL-2 secretion by γδ (CAR)-T cells (γδ (CAR)-T cells): increases IL-2 secretion
- Percentage of CD3Vd2 positive cells in flushed tibias, higher than control ([1]; Day 1 after γδ T-cell injection): > 61%
- Percentage of CD3Vd2 positive cells in flushed tibias, higher than control ([1]; Day 3 after γδ T-cell injection): > 32%
- Percentage of CD3Vd2 positive cells in flushed tibias, higher than control ([1]; Day 5 after γδ T-cell injection): > 57%
- Apoptotic (cleaved caspase-3) cancer cells, tibia histology [1, 5]: increased apoptotic
- Proliferative (phospo-Histone H3) cancer cells, tibia histology [1, 5]: decreased proliferative
- C4-2B growth rate (bioluminescence) ([1]; zoledronate group compared to controls, all with γδ T-cells): significantly slower
- Intracellular IPP levels [2]: produced high levels of IPP
- Intracellular IPP levels (T47D breast cancer cells; 1 h, high-dose zoledronate (doses 10 μM or 25 μM)): detectable over background
- Intracellular IPP levels (T47D breast cancer cells; 18 h, both doses (10 μM or 25 μM)): detectable over background
- Intracellular IPP levels [3]: did not produce IPP
- Effect of ZOL on IFNγ secretion ([4]; coculture of γδ (CAR−)T-cells with C4-2BPSCA cells, Zol 0, 0.4 and 0.8 μM): enhanced IFNγ secretion
- Effect of zoledronate on interferon production by γδ CAR-T cells [4, 6]: enhanced interferon production
- Effect of zoledronate on target recognition by GFP-transduced and untransduced γδ T cells [4, 6]: induced target recognition
- Effect of ZOL on IFNγ secretion ([4]; αβ T cells with C4-2BPSCA cells): not observed
